# How the values were obtained:
# [1] = tested on: HeLa cells; assay: LDH release assay; assay type: cell-based, human; conditions: 24 h, highest concentration of 50 µM
# Description: In order to distinguish whether the cell viability inhibition was attributed to growth inhibition or cytotoxicity manifested by cell membrane disruption, the lactate dehydrogenase (LDH) release assay was conducted. LDH is a cytoplasmic enzyme rapidly released from cells upon membrane damage, a key feature of apoptosis, necrosis, and other forms of cell death. The released enzyme can be detected due to its ability to convert lactate into pyruvate and NADH, which is then specifically determined by a colorimetric assay.
# Figure 3 The effects of 5 (blue) and 7 (green) on LDH release from HeLa cells. The cells were treated with compounds at a concentration range of 3.125–50 μM for 24 h at 37 °C and 5% CO2. Data are presented as the mean LDH release (%) ± SD of two experiments compared to untreated control (red). Statistical significance measured by two-way analysis of variance (ANOVA) is indicated by asterisks: (*) p < 0.05.
# LDH release assay: The activity of 5 and 7 on cell membrane destabilization was determined with the CytoTox 96®Non-Radioactive Cytotoxicity Assay (Promega, Madison, WI, USA). […] After incubation, Stop Solution (50 μL) was added to each well, and the absorbance was measured at 490 nm using the SpectraMax i3 Multi-Mode Platform (Molecular Devices, San Jose, CA, USA). […]
# [2] = tested on: HeLa cells; assay: Cell cycle analysis (PI staining, flow cytometry); assay type: cell-based, human; conditions: 24 h, concentration corresponding to IC50
# Description: The MTT and LDH release assays provided evidence that aziridine phosphine oxides 5 and 7 inhibit cancer cell viability at concentrations equal to their respective IC50 values through antiproliferative mechanisms rather than by inducing cell death. It is expected that such observations will be reflected in cell cycle disturbances. To investigate which phase of the cell cycle is arrested, a cell cycle analysis was performed using propidium iodide (PI) staining. PI binds in proportion to the amount of DNA present in the cell. As a result of DNA replication, the cells in the S phase of the cell cycle contain more DNA than cells in the G1 phase. […] Before the exact analysis of the obtained results, we utilized a pre-gate to define the counted cells to be analyzed for cell cycle distribution. […] These findings confirmed the antiproliferative activity of these compounds.
# Figure 4 Effects of 5 and 7 on cell cycle phase distribution in HeLa cells compared to untreated control. […] Data are expressed as mean ± SD of two independent experiments. Statistical significance in comparison with the untreated control, measured by two-way analysis of variance (ANOVA) followed by Bonferroni multiple comparison test, is indicated by asterisks: (*) p < 0.05, (**) p < 0.01, (***) p < 0.001.
# Cell cycle analysis: The distribution of cell cycle phases was measured using flow cytometry and propidium iodide (PI) staining. The PI intercalates into the major groove of double-stranded DNA, producing a highly fluorescent signal when excited at 488 nm, with a broad emission centered around 600 nm. PI binds in proportion to the amount of DNA present in the cell. HeLa cells were seeded on 60 mm dishes at a density of 5 × 10^5 in 3 mL of Dulbecco’s Modified Eagle’s Medium F12 (DMEM-F12, Biowest, Nuaillé, France) supplemented with 10% fetal bovine serum (FBS, Biowest), 100 units/mL of penicillin G and 100 μg/mL of streptomycin (Biowest, Nuaillé, France) and incubated for 24 h at 37 °C and 5% CO2. Then, compounds 5 or 7 were added at a concentration corresponding to their IC50 values and the plate was incubated for the next 24 h. Untreated cells were used as a positive control. The cells were then harvested by trypsinization, suspended in culture medium (1 mL), centrifuged at 3600 rpm for 10 min, and washed twice with dPBS (Dulbecco’s phosphate-buffered saline, Cytogen–Polska Sp. z o.o, Zgierz, Poland). The cell sediment was resuspended in dPBS (600 μL) and fixed in 70% ice-cold ethanol. After storing the cells at 4 °C for 24 h, they were stained in PI staining solution (600 µL, 50 μg/mL of PI, and 100 μg/mL of RNAse A in dPBS) and incubated for 30 min at 37 °C in darkness. The cell cycle distribution was analyzed by flow cytometry using an LSRII (Becton Dickinson, Franklin Lakes, NJ, USA) instrument at 488 nm excitation and 535/617 emission wavelengths, and the cell cycle phase distribution from two independent experiments (10,000 cell counts/sample) was determined with the FlowJo 7.6.1 software (FlowJo, LLC, Ashland, OR, USA) using a built-in cell cycle analysis module (Watson pragmatic algorithm).
Structure (SMILES),LDH release compared to untreated control [1],cell cycle arrest (phase distribution) [2],number of cells in the sub-G1 phase (indicative of apoptosis) [2],stage of S-phase arrest (histograms of cell cycle distribution) [2]
CC(C)[C@@H]1CN1c1ccccc1P(=O)(c1ccccc1)c1ccccc1 [Compound 5],significant LDH release,significant cell arrest in the S phase,significantly increased,cell arrest mainly in the early stages of the S phase
CC(C)C[C@H]1CN1c1ccccc1P(=O)(c1ccccc1)c1ccccc1 [Compound 7],significant LDH release,significant cell arrest in the S phase,significantly increased,more effective in the late S phase

# Reference: PMC11012799 (Molecules, 2024)
